Measured values reported in paper PMC11728001, “Design, Synthesis, and Biological Evaluation of Novel Urea-Containing Carnosic Acid Derivatives with Anticancer Activity” (International Journal of Molecular Sciences, 2024).

Experiments:
Format in all cases: cell-based
SW620 cells = assay: MTT cell viability assay, SW620; conditions: Homo sapiens, SW-620, 72 h incubation, mean ± SD
Experimental: (§1) The effect of the compounds on cell viability was evaluated using the MTT assay. HCT116 (3000 cells/well), SW620 (8000 cells/well), SW480 (6000 cells/well), Caco-2 (4000 cells/well), A375 (1500 cells/well), MiaPaca-2 (2000 cells/well), and BJ (10,000 cells/well) cells were seeded in 96-well plates. After 24 h, the growth medium was replaced with a fresh medium containing the desired concentration of the compound or DMSO (control). After 72 h of incubation, the supernatant was removed and 100 µL of a mixture (1:1) of filtered MTT solution (1 mg/mL in PBS) with FBS-free medium was added to each well. After 1 h of incubation at 37 °C, the mixture was removed and 100 µL of DMSO was added to each well to dissolve the formed formazan crystals. Absorbance was immediately measured at 570 nm using a Benchmark Plus Microplate Reader (Bio-Rad Laboratories, Hercules, CA, USA). IC50 values were calculated using GraphPad Prism 9 software (GraphPad Software, San Diego, CA, USA) and expressed as the mean ± standard deviation (SD) of at least three independent experiments.

[1] = tested on: HCT116 colorectal cancer cell line; assay: MTT cell viability assay, HCT116; conditions: Homo sapiens, HCT-116, 72 h incubation, mean ± SD
Experimental: The antiproliferative activity of CA 1 and its derivatives was evaluated against a colorectal cancer (CRC) cell line (HCT116) using the MTT assay. The anticancer drug cisplatin was used as the reference drug.
as §1

[2] = tested on: BJ non-tumoral fibroblast cell line; assay: MTT cell viability assay, BJ; conditions: 72 h incubation
Experimental: as §1

SOD2 (MnSOD) = assay: Western blot, SOD2 (MnSOD) expression in SW480 cells; conditions: SW480, IC50 concentration, 24, 48 and 72 h
Experimental: (§2) SW480 cells (1.68 × 10^5 cells/well) were seeded in 6-well plates and incubated at 37 °C for 24 h. […] At the end of the treatment period, cells were washed twice with ice-cold DPBS and incubated for 30 min. at 4 °C with lysis buffer containing 20 mM Tris-HCl (pH 7.5), 1 mM DTT, 0.2% Triton X-100, 1 mM Na-EDTA, 0.5 mM sodium deoxycholate, 1% proteases inhibitor cocktail, and 0.5% phosphatases inhibitor cocktail. The cells were scraped, sonicated, and centrifuged at 12,000× g for 20 min. at 4 °C. The supernatants were recovered, and the protein concentration was quantified using Pierce^TM BCA protein assay reagents A and B and Pierce^TM bovine serum albumin standard ampules (2 mg/mL).
(§3) Membranes were blocked with 5% skim milk in PBS-Tween-20 (0.1%) for 1 h at room temperature, following its incubation with the specific primary antibodies overnight at 4 °C (CDK4, CDK6, and SOD2 (MnSOD)). Exceptionally, the primary antibody against actin was only incubated for 30 min. at room temperature. The membranes were then washed with PBS-Tween-20 (0.1%) and incubated for 40 min. with an anti-mouse secondary antibody or for 1 h with an anti-rabbit secondary antibody. After incubation, the membranes were washed again with PBS-Tween-20 (0.1%) and treated with the Immobilon Western Chemiluminescent HRP Substrate Kit. […]

CDK4 = assay: Western blot, CDK4 expression in SW480 cells; conditions: SW480, IC50 concentration, 24 and 72 h
Experimental: as §2, §3

A375 melanoma cells = assay: MTT cell viability assay, A375; conditions: Homo sapiens, A-375, 72 h incubation, mean ± SD
Experimental: as §1

CDK6 = assay: Western blot, CDK6 expression in SW480 cells; conditions: SW480, IC50 concentration, 24, 48 and 72 h
Experimental: as §2, §3

[3] = tested on: MiaPaca-2 pancreatic cancer cells; assay: MTT cell viability assay, MiaPaca-2; conditions: Homo sapiens, MIA PaCa-2, 72 h incubation, mean ± SD
Experimental: as §1

SW480 cells = assay: MTT cell viability assay, SW480; conditions: Homo sapiens, 72 h incubation, mean ± SD
Experimental: as §1

CC(=O)Oc1c(C(C)C)cc2c(c1OC(C)=O)[C@@]1(NC(=O)NCCc3cccc(Cl)c3)CCCC(C)(C)[C@@H]1CC2 [Compound 14, (4bR,8aS)-4b-(3-(3-chlorophenethyl)ureido)-2-isopropyl-8,8-dimethyl-4b,5,6,7,8,8a,9,10-octahydrophenanthrene-3,4-diyl diacetate]
IC50 (SW620 cells): 6.1 ± 0.3 µM | IC50 [1]: 9.8 ± 0.5 µM | IC50 [2]: > 25 µM | expression of SOD2 (MnSOD) (SOD2 (MnSOD)): no significant changes | CDK4 expression versus untreated cells (CDK4): downregulation | IC50 (A375 melanoma cells): 7 ± 0.4 µM | CDK6 expression versus untreated cells (CDK6): downregulation | IC50 [3]: 9 ± 0.8 µM | IC50 (SW480 cells): 6.1 ± 0.3 µM
